The values that follow come from patent US20130274180A1, “Pharmaceutical Compositions” (priority 2005, published 2013).

A short description of one data set: in vivo. Conditions: rat, po.
Data set [1] is classed as physicochemical. The source says: The manufacture of an amorphous solid dispersion containing VX-950 presented several challenges. […] Therefore, an appropriate solvent or solvent mixture is crucial to optimizing the processing and production of a solid dispersion.
Data set [2] can be described thus: Effect of SLS concentration on apparent solubility (Example 10). Type of data set: physicochemical. Conditions: VX-950 (95% L/5% D). Here is the method: The effect of SLS concentration on the apparent solubility of VX-950 solid dispersions were tested.

A word on the bioavailability: it is dose-corrected exposure relative to a reference, in per cent. Consider `CCC[C@H](NC(=O)[C@@H]1[C@H]2CCC[C@H]2CN1C(=O)[C@@H](NC(=O)[C@@H](NC(=O)c1cnccn1)C1CCCCC1)C(C)(C)C)C(=O)C(=O)NC1CC1` [VX-950], for which the bioavailability in “in vivo” was under 0.5%. Also, in data set [1], the aqueous solubility result is “virtually undetectable”, the “pH dependence of aqueous solubility” value is on record as “not pH-dependent” and the solubility in water entry is reported as “highly insoluble”.

Consider `CCC[C@H](NC(=O)[C@@H]1[C@H]2CCC[C@H]2CN1C(=O)[C@@H](NC(=O)[C@@H](NC(=O)c1cnccn1)C1CCCCC1)C(C)(C)C)C(=O)C(=O)NC1CC1` [No Excipients], for which the “% dissolved in water @ 5 min.” value in data set [2] is 2.7%.
